Experimental data as given in ChEMBL document CHEMBL1201862, “PubChem BioAssay data set” (2004).
Active and inactive are the calls of the source.

How the values were obtained:
[1] = target: T1, High affinity choline transporter 1 (Homo sapiens, UniProt Q9GZV3); assay: human choline transporter blockers, potency – cell-based, 5-point CRC, membrane potential dye, dose response (AID 504840); assay type: functional
T1 sequence (Q9GZV3 whole entry): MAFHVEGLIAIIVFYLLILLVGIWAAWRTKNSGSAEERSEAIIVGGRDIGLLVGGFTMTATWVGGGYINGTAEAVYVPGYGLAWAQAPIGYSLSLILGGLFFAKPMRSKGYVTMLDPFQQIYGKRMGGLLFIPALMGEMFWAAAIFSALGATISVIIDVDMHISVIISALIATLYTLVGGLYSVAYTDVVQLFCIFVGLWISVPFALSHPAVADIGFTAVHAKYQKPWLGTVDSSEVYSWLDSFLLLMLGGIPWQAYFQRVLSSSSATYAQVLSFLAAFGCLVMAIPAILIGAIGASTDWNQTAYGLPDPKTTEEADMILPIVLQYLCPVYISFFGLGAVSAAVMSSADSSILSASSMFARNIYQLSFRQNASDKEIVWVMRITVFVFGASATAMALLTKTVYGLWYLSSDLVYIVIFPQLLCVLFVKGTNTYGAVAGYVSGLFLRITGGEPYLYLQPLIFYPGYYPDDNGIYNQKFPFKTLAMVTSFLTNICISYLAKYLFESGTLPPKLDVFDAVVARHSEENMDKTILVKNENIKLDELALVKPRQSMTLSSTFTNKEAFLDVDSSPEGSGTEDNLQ

[2] = target: T2, Ubiquitin-conjugating enzyme E2 N (Homo sapiens, UniProt P61088); assay type: functional
T2 sequence (P61088 whole entry): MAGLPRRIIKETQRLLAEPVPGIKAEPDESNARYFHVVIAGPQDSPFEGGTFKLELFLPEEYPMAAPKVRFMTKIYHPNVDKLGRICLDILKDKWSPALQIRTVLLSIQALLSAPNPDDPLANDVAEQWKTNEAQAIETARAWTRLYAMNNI

[3] = target: T1, High affinity choline transporter 1; assay: human choline transporter blockers, potency – cell-based, 10-point CRC, membrane potential dye, dose response (AID 588401); assay type: functional;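 note: membrane potential dye fluorescence of choline-evoked depolarization via CHT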
CAAX prenyl protease 2 = target: T3, CAAX prenyl protease 2 (Saccharomyces cerevisiae S288c, UniProt Q03530); assay type: biochemical
T3 sequence (Q03530 whole entry): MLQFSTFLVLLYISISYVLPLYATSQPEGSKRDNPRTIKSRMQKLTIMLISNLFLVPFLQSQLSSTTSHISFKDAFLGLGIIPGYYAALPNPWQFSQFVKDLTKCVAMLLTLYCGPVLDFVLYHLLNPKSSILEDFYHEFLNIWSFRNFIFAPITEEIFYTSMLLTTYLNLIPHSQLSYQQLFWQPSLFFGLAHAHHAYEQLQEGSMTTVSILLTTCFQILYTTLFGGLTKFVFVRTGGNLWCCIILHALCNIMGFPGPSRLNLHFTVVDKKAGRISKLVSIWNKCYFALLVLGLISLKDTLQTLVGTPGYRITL

[4] = target: T2, Ubiquitin-conjugating enzyme E2 N; assay type: functional; remark: listed apart in the source
Bcl-2-related protein A1 = target: T4, Bcl-2-related protein A1 (Mus musculus, UniProt Q07440); assay type: functional;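 note: confirmatory dose–response counterscreen on Bfl-1, used to check hits from a UBC13 polyubiquitin inhibitor campaign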
T4 sequence (Q07440 whole entry): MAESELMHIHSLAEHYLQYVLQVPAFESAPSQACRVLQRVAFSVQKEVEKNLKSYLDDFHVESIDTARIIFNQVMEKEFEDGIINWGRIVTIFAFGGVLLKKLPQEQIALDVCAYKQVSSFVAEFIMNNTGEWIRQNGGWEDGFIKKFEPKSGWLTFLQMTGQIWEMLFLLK

CAAX prenyl protease 1 = CAAX prenyl protease 1 (Saccharomyces cerevisiae S288c, UniProt P47154); assay: yeast CAAX protease Ste24 inhibition – biochemical, S. cerevisiae, plate reader, cherry-pick, dose response (AID 488815)
Chain of CAAX prenyl protease 1 (P47154 whole entry): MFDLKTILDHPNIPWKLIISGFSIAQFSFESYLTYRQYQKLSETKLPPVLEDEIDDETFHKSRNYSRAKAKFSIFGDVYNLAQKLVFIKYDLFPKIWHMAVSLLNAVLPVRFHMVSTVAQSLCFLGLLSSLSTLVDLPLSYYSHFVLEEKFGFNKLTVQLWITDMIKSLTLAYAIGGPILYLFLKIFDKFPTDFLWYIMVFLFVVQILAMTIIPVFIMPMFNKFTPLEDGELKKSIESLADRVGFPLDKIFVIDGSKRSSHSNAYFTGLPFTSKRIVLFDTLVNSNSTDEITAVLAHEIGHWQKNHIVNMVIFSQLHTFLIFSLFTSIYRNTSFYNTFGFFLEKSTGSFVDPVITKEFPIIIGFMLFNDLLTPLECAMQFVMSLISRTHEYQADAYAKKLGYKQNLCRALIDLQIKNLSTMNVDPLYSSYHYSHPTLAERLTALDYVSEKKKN

IC50 [1]: 1.39 µM (active) | IC50 [2]: 4.28 µM (active) | IC50 [3]: 1.08 µM (active) | AC50 (CAAX prenyl protease 2): 35.5 µM (active) | IC50 [4]: 4.21 µM (active) | IC50 (Bcl-2-related protein A1): > 20 µM (inactive) | AC50 (CAAX prenyl protease 1): > 100 µM (inactive)
Structure (SMILES): NCCCn1c(C(=O)c2cc(Cl)c(N)c(Cl)c2)c2ccc(C(F)(F)F)cc2[n+]1[O-]
